Tested on: I, II, III and V type phosphodiesterase isozymes
Assay: Activity to inhibit various phosphodiesterase isozymes (selectivity for type IV)
Type: biochemical, rat (types I, III); human (type V)
Settings: IC50 ratio vs types I
Excerpt: [A] In order to evaluate selectivity of the compounds of the present invention for type IV phosphodiesterase, I, II, III and V type phosphodiesterase isozymes were purified in the following manner.
1) Solutions containing various phosphodiesterase (I, II and III types) isozymes were purified from rat heart muscle cells in the following manner. Under ether anesthesia, Wistar rat was subjected to thoracotomy to excise the heart. After removing blood by perfusion with physiological saline supplemented with heparin (1 unit/ml), the heart was finely chopped with scissors.
2) Solutions containing various phosphodiesterase isozymes were obtained from the thus obtained soluble fraction in the following manner. […] Each fraction was checked for cAMP- and cGMP-metabolizing phosphodiesterase activities. […] These fractions were separately collected to be used as phosphodiesterase (types I, II and III) stock solutions for the examination of selectivity.
3) A solution containing type V phosphodiesterase was prepared from peripheral blood of a healthy person in the following manner. A 200 ml portion of physiological saline supplemented with dextran (3%) was added to 500 ml of heparinized peripheral blood and incubated at 37° C. for 40 minutes to effect precipitation of erythrocytes. The supernatant fluid after precipitation of erythrocytes was recovered and centrifuged once, and the resulting precipitate was suspended in buffer B (140 mM NaCl, 5 mM KCl, 5 mM glucose and 10 mM HEPES, pH 7.4), overlaid on a solution for density gradient centrifugation use (Ficoll solution) and then centrifuged at room temperature for 40 minutes at 450×g, thereby separating monocyte fraction and granulocyte fraction.
Each fraction was checked for cAMP- and cGMP-metabolizing phosphodiesterase activities. Fractions having only cGMP metabolizing activity were collected to be used as the type V phosphodiesterase stock solution.
[B] Inhibitory activities were measured using the thus obtained stock solutions of various phosphodiesterase isozymes.
After completion of the reaction, the reaction mixture was boiled at 90° C. for 1 minute, cooled in an ice bath, mixed with 1 unit of 5'-nucleotidase and then subjected to 10 minutes of reaction at 30° C., and the reaction was stopped by adding 1 ml of methanol. The reaction solution was passed through a Dowex 1×8 column to effect adsorption of un-metabolized cAMP or cGMP and then radioactivity in the eluate was measured using a scintillation counter.

Row | selectivity in inhibition activity against type IV PDE over the other types of PDE [times] | SMILES
1 | ≥ 1000 | CCn1c(=O)nc(-c2cccc(Cl)c2)c2ccc(C)nc21 [Example 3, 4-(3-Chlorophenyl)-1-ethyl-7-methylpyrido[2,3-d]pyrimidin-2(1H)-one]
2 | ≥ 1000 | CCn1c(=O)nc(-c2cccc(Br)c2)c2ccc(C)nc21 [Example 4, 4-(3-Bromophenyl)-1-ethyl-7-methylpyrido[2,3-d]pyrimidin-2(1H)-one]
3 | ≥ 1000 | CCn1c(=O)nc(-c2cccc(Cl)c2)c2ccc(C(C)O)nc21 (centres unmarked) [Example 19, 4-(3-chlorophenyl)-1-ethyl-7-(1-hydroxyethyl)pyrido[2,3-d]pyrimidin-2(1H)-one]

Row | SMILES | selectivity in inhibition activity against type IV PDE over the other types of PDE [times]
4 | CCc1ccc2c(-c3cccc(Cl)c3)nc(=O)n(CC)c2n1 [Example 1, 4-(3-chlorophenyl)-1,7-diethylpyrido[2,3-d]pyrimidin-2(1H)-one] | ≥ 1000

Target: type IV phosphodiesterase
Assay: Type IV phosphodiesterase inhibition activity measuring test (in vitro)
Type: biochemical
Settings: Table 1; human granulocyte type IV PDE, 1 μM cAMP, 30° C.; read-out: Type IV PDE inhibition activity IC50
Procedure: The following assay was used for the evaluation of the capability of the compounds of the present invention to inhibit type IV phosphodiesterase.
1) Physiological saline (200 ml) supplemented with dextran (3%) was added to 500 ml of heparinized peripheral blood of a healthy person and incubated at 37° C. for 40 minutes to effect precipitation of erythrocytes. The supernatant after precipitation of erythrocytes was recovered and centrifuged once, and the resulting precipitate was suspended in buffer A (140 mM NaCl, 5 mM KCl, 5 mM glucose and 10 mM HEPES, pH 7.4), overlaid on a solution for density gradient centrifugation use (Ficoll solution) and then centrifuged at room temperature for 40 minutes at 450×g, thereby separating monocyte fraction and granulocyte fraction. The granulocyte fraction was washed once with buffer B (140 mM NaCl, 5 mM KCl; 1 mM CaCl2, 1 mM MgCl2, 5 mM glucose and 10 mM HEPES, pH 7.4) and suspended in buffer C (20 mM Bis-Tris, 5 mM dithioerythritol, 2 mM EGTA and 50 mM sodium acetate, pH 6.5) containing a protease inhibitor (50 μM phenyl-methyl-sulfonyl-fluoride, 5 μM pepstatin A, 40 μM leupeptin, 20 μM aprotinin or 2 mM benzamidine) and then the cells were disrupted using polytron and sonicator and subjected to ultracentrifugation (4° C., 100,000×g, 60 minutes) to give a soluble fraction.
2) The thus obtained soluble fraction was applied to a column of 1.6×10 cm packed with Q Sepharose which had been equilibrated with buffer C. Next, the column was washed with 300 ml of buffer C to remove non-absorbed protein. Phosphodiesterase was eluted with 200 ml of buffer C having 0.05 to 1.25 M linear gradient of sodium acetate to collect 40 fractions each containing 5.0 ml eluate. Each fraction was checked for cAMP- and cGMP-metabolizing phosphodiesterase activities. Fractions having no cGMP- but cAMP-metabolizing activity and showing disappearance of the metabolizing activity by 10 μM rolipram (a type IV phosphodiesterase selective inhibitor) were collected to be used as a stock solution for the examination of type IV phosphodiesterase inhibition activity.
3) A predetermined amount of each compound to be tested was subjected to 10 minutes of reaction at 30° C. in a reaction mixture containing 40 mM Tris-HCl (pH 8.0), 5 mM MgCl2, 4 mM 2-mercaptoethanol, 0.3 μM cilostamide (an III type phosphodiesterase selective inhibitor), 1 μM cAMP, 10 nM ^3 H-cAMP and the type IV phosphodiesterase stock solution. The reaction solution was boiled at 90° C. for 1 minute, cooled in an ice bath, mixed with 1 unit of 5'-nucleotidase and then subjected to 10 minutes of reaction at 30° C., and the reaction was stopped by the addition of 1 ml of methanol. The reaction solution was passed through a Dowex 1×8 column to adsorb un-hydrolyzed material and then the radioactivity was measured.
4) Concentration of each compound to be tested which inhibits 50% of the metabolic activity of type IV phosphodiesterase was calculated and expressed as IC50. Test results: Results of the measurement of the activity of the compounds of the present invention to inhibit type IV PDE are shown in Tables 1 and 2, together with the results of the compounds illustratively disclosed in the aforementioned U.S. Patent and similar comparative compounds which were separately synthesized.

Row | SMILES | IC50 [nM]
5 | CCn1c(=O)nc(-c2cccc(Cl)c2)c2ccc(C(C)O)nc21 (centres unmarked) [Example 19, 4-(3-chlorophenyl)-1-ethyl-7-(1-hydroxyethyl)pyrido[2,3-d]pyrimidin-2(1H)-one] | 8.08
6 | Cc1cccc(-c2nc(=O)n(CC3CC3)c3nc(C)ccc23)c1 [Example 33, 1-Cyclopropylmethyl-7-methyl-4-(3-methylphenyl)pyrido[2,3-d]pyrimidin-2(1H)-one] | 6.19
7 | CCc1ccc2c(C3CCCCC3)nc(=O)n(CC)c2n1 [Example 34, 4-Cyclohexyl-1,7-diethylpyrido[2,3-d]pyrimidin-2(1H)-one] | 1.47
8 | CCn1c(=O)nc(-c2cccc([N+](=O)[O-])c2)c2ccc(C)nc21 [Example 37, 1-Ethyl-7-methyl-4-(3-nitrophenyl)-pyrido[2;3-d]pyrimidin-2(1H)-one] | 4.75
9 | CCn1c(=O)nc(-c2cccc(Cl)c2)c2ccc(C(C)SC(C)=O)nc21 (centres unmarked) [Example 40, 7-(1-acetylthioethyl)-4-(3-chlorophenyl)-1-ethylpyrido[2,3-d]pyrimidin-2(1H)-one] | 5.79
10 | CCc1ccc2c(-c3cccc(Cl)c3)nc(=S)n(CC)c2n1 [Example 41, 4-(3-Chlorophenyl)-1,7-diethylpyrido[2,3-d]pyrimidin-2(1H)-thione] | 0.85

Further lines, results first:

Row | IC50 [nM] | SMILES
11 | 7.8 | CCn1c(=O)nc(-c2cccc(Cl)c2)c2ccc(C3CC3)nc21 [Example 22, 4-(3-Chlorophenyl)-7-cyclopropyl-1-ethylpyrido[2,3-d]pyrimidin-2(1H)-one]
12 | 0.93 | CCn1c(=O)nc(-c2cccc(Cl)c2)c2ccc(C=NO)nc21 [Example 36, 4-(3-chlorophenyl)-1-ethyl-7-hydroxyiminomethylpyrido[2,3-d]pyrimidin-2(1H)-one]

Same assay, conditions: Table 2; human granulocyte type IV PDE, 1 μM cAMP, 30° C.; read-out: Type IV PDE Inhibition IC50

Row | SMILES | IC50 [nM]
13 | CCc1ccc2c(-c3cccc(Cl)c3)nc(=O)n(CC)c2n1 [Example 1, 4-(3-chlorophenyl)-1,7-diethylpyrido[2,3-d]pyrimidin-2(1H)-one] | 0.81
14 | CCc1ccc2c(-c3cccc(Br)c3)nc(=O)n(CC)c2n1 [Example 2, 4-(3-Bromophenyl)-1,7-diethylpyrido[2,3-d)pyrimidin-2(1H)-one] | 1.15
15 | CCn1c(=O)nc(-c2cccc(Cl)c2)c2ccc(C)nc21 [Example 3, 4-(3-Chlorophenyl)-1-ethyl-7-methylpyrido[2,3-d]pyrimidin-2(1H)-one] | 2.32
16 | CCn1c(=O)nc(-c2cccc(Br)c2)c2ccc(C)nc21 [Example 4, 4-(3-Bromophenyl)-1-ethyl-7-methylpyrido[2,3-d]pyrimidin-2(1H)-one] | 1.45
17 | CCn1c(=O)nc(-c2ccccc2Cl)c2cccnc21 [compound 1, 4-(2-chlorophenyl)-1-ethylpyrido[2,3-d]pyrimidin-2(1H)-one, reference compound] | 2840
18 | CC(C)n1c(=O)nc(-c2ccc(Cl)cc2)c2cccnc21 [compound 2, reference compound] | > 3000
19 | CC(C)n1c(=O)nc(-c2ccc(Cl)c(Cl)c2)c2cccnc21 [compound 4, reference compound] | > 3000
20 | CCn1c(=O)nc(-c2cccc(Cl)c2)c2cccnc21 [compound 7, 4-(3-chlorophenyl)-1-ethylpyrido[2,3-d]pyrimidin-2(1H)-one, reference compound] | 308
21 | CCn1c(=O)nc(-c2cccc(C)c2)c2cccnc21 [compound 8, 4-(3-methylphenyl)-1-ethylpyrido[2,3-d]pyrimidin-2(1H)-one, reference compound] | 612

Continued, values first:

Row | IC50 [nM] | SMILES
22 | 3.5 | CCn1c(=O)nc(-c2cccc(C)c2)c2ccc(C)nc21 [Example 5, 1-Ethyl-7-methyl-4-(3-methylphenyl)-pyrido[2,3-d]pyrimidin-(1H)-one]
23 | 3.7 | CCc1ccc2c(-c3cccc(C)c3)nc(=O)n(CC)c2n1 [Example 6, 1,7-Diethyl-4-(3-methylphenyl)pyrido[2,3-d]pyrimidin-2(1H)-one]
24 | > 3000 | CCn1c(=O)nc(-c2ccc(Cl)cc2)c2cccnc21 [compound 3, 4-(4-chlorophenyl)-1-ethylpyrido[2,3-d]pyrimidin-2(1H)-one, reference compound]
25 | > 3000 | CCn1c(=O)nc(-c2ccc(Cl)c(Cl)c2)c2cccnc21 [compound 5, 4-(3,-4-dichlorophenyl)-1-ethylpyrido[2,3-d]pyrimidin-2(1H)-one, reference compound]
26 | 803 | CC(C)n1c(=O)nc(-c2cccc(Cl)c2)c2cccnc21 [compound 6, 4-(3-chlorophenyl)-1-isopropylpyrido[2,3-d]pyrimidin-2(1H)-one, reference compound]

Source: patent US6136810A, “Pyrido[2,3-D]pyrimidine derivatives and pharmaceutical compositions thereof” (priority 1995, dated 2000)
